The results in this text go back to patent publication US12507703B2, “Methods, devices and compositions for preserving human milk” (The Trustees of Princeton University, priority 2023, dated 2025).

Where “and” joins values, the source holds several entries; their conditions need not be identical. Equal values may be shown once.

In the first experiment the test system is lipase. Description: Lipase/lipolysis assay (EnzChek Lipase Substrate, quenched BODIPY-fatty acid conjugate) on stored human milk. Note: test concentration or dose not given here.
Details: not given
In the case of `COc1cc(/C=C/C(=O)OCC[N+](C)(C)C)cc(OC)c1O.N#C[S-]` [Sinapine (thiocyanate)], the “Lipase (RFU)” value came to 1052.349 RFU. For the compound `N[C@@H](Cc1c[nH]c2ccccc12)C(=O)O` [L-Tryptophan], the “Lipase (RFU)” value was 1074.461 RFU and 1239.076 RFU. Same read-out and setting: under (−)-Epigallocatechin Gallate stands 333.087 RFU; under `C=CC(C)(CCC=C(C)C)OC(C)=O` (stereo not shown) [Linalyl acetate], 753.0162 RFU and 717.2876 RFU; under `O=C(O)[C@@H]1CCN1` [L-Azetidine-2-carboxylic acid], 953.3787 RFU. On the same count and under the same terms, under `OC[C@H]1O[C@H](OC[C@H]2OC(O)[C@H](O)[C@@H](O)[C@@H]2O)[C@H](O)[C@@H](O)[C@@H]1O` (stereo partly shown) [Isomaltose] stands 1074.051 RFU. `O=C[C@H](O)[C@@H](O)[C@H](O)[C@H](O)COP(=O)([O-])[O-].[Na+].[Na+]` [D-Glucose 6-phosphate (disodium salt)]: the “Lipase (RFU)” value came out at 1238.699 RFU. `CC(C)=CCC[C@](C)(O[C@@H]1O[C@H](CO[C@@H]2OC[C@@H](O)[C@H](O)[C@H]2O)[C@@H](O)[C@H](O)[C@H]1O)[C@H]1CC[C@]2(C)[C@@H]1[C@H](O)C[C@@H]1[C@@]3(C)CC[C@H](O[C@@H]4O[C@H](CO)[C@@H](O)[C@H](O)[C@H]4O[C@@H]4O[C@H](CO)[C@@H](O)[C@H](O)[C@H]4O[C@@H]4OC[C@@H](O)[C@H](O)[C@H]4O)C(C)(C)[C@@H]3CC[C@]12C` [Notoginsenoside Fc]: the “Lipase (RFU)” value stood at 1131.911 RFU.

Take `CC1(C)CCC[C@]2(C)[C@H]3CCO[C@]3(C)CC[C@@H]12` [Ambroxide]: the “Lipase (RFU)” value was determined as 1042.515 RFU. As to `CCN(Cc1cccc(S(=O)(=O)[O-])c1)c1ccc(C(=C2C=CC(=[N+](CC)Cc3cccc(S(=O)(=O)[O-])c3)C=C2)c2ccc(O)cc2S(=O)(=O)[O-])cc1.[Na+].[Na+]` [Fast Green FCF], the “Lipase (RFU)” value amounted to 896.2144 RFU. Turning to `C[C@H]1CC[C@@H]2[C@@H](C)[C@H]3[C@H](C[C@H]4[C@@H]5CC=C6C[C@@H](O[C@@H]7O[C@H](CO)[C@H](O)[C@H](O[C@@H]8O[C@H](CO)[C@@H](O)[C@H](O)[C@H]8O)[C@H]7O[C@@H]7O[C@@H](C)[C@H](O)[C@@H](O)[C@H]7O)CC[C@]6(C)[C@H]5CC[C@]34C)N2C1` [α-Solanine], the “Lipase (RFU)” value was determined as 840.4474 RFU. In the case of `O=S(O)(O)=S` [Thiosulfate], the “Lipase (RFU)” value worked out at 1139.701 RFU.

For `O=C(O)C[C@H](O)C(=O)O` [L-Malic Acid], the “Lipase (RFU)” value is listed as 1144.049 RFU. For `C=C(CC(=O)O)C(=O)O` [Itaconic Acid], the “Lipase (RFU)” value is reported as 944.0433 RFU. Still for that read-out and setting: under `CCCC=C1OC(=O)c2ccccc21` [3-Butylidenephthalide] stands 952.6722 RFU; under `OC1OC[C@@H](O[C@@H]2OC[C@@H](O)[C@H](O)[C@H]2O)[C@H](O)[C@H]1O` (stereo partly shown) [Xylobiose], 862.1511 RFU; under `CC1=C(O)C(=O)C=C2C1=CC=C1[C@@]2(C)CC[C@@]2(C)[C@@H]3C[C@](C)(C(=O)O)CC[C@]3(C)CC[C@]12C` [Tripterin], 952.6128 RFU.

Regarding Theaflavin 3,3′-digallate, the “Lipase (RFU)” value is recorded as 933.3624 RFU. Take `COc1cc2c(cc1O)C[C@@H]1NCCc3cc(OC)c(O)c-2c31` [Norisoboldine]: the “Lipase (RFU)” value amounted to 812.7907 RFU.

On to Catechin, for which the “Lipase (RFU)” value is recorded as 945.7654 RFU.

In the case of `O=C(O)C(O)COP(=O)(O)O` [D-3-Phospho-Glyceric Acid], the “Lipase (RFU)” value came out at 875.2279 RFU. Turning to `O=C[C@H](O)[C@H]1OC(=O)[C@@H](O)[C@H]1O` [D-Glucuronic acid lactone], the “Lipase (RFU)” value was 1111.254 RFU. On the same count and under the same terms, under `CC(=O)C1=CC[C@H]2[C@@H]3CCC4=CC(=O)CC[C@]4(C)[C@H]3CC[C@]12C` [Compound 16-Dehydroprogesterone] stands 1000.658 RFU.

Consider `C=C1CCC2CC1C2(C)C` (stereo not drawn) [β-Pinene], for which the “Lipase (RFU)” value came to 851.1223 RFU. Turning to `C=CCSSCC=C` [Diallyl disulfide], the “Lipase (RFU)” value was 1000.398 RFU and 1055.55 RFU. As for `CC(=O)O[C@@H]1C(=O)C2=C(C(=O)C[C@H]3C(C)(C)C(=O)CC[C@]23C)[C@]2(C)C(=O)C[C@H]([C@H](C)CC(=O)CC(C)C(=O)O)[C@@]12C` (stereo partly shown) [Ganoderic acid F], the “Lipase (RFU)” value came to 791.7198 RFU.

Turning to `COc1ccc(-c2oc3c(OC)c(O)cc(O)c3c(=O)c2O)cc1` [Prudomestin], the “Lipase (RFU)” value was determined as 894.1495 RFU. Regarding `COc1cc(O)c2c(=O)cc(-c3ccccc3)oc2c1` [Tectochrysin], the “Lipase (RFU)” value worked out at 890.4365 RFU. On the same count and under the same terms, the value for `C[C@H](CCC(=O)O)[C@H]1CC[C@H]2[C@@H]3[C@@H](O)C[C@@H]4C[C@H](O)CC[C@]4(C)[C@H]3C[C@H](O)[C@]12C` [Ursocholic acid] was 879.9608 RFU; that for `CCC1CCC(=O)O1` (stereo not shown) [γ-Hexalactone] was 1020.576 RFU; that for 1,4-Dicaffeoylquinic acid was 794.8464 RFU.

For `CS(=O)(=O)CC[C@H](N)C(=O)O` [L-Methionine Sulfone], the “Lipase (RFU)” value is reported as 897.1863 RFU. Regarding `CCCCCCCCCCCCCCCCCC(=O)O[C@H](CC(=O)[O-])C[N+](C)(C)C` [Stearoylcarnitine], the “Lipase (RFU)” value stood at 900.7392 RFU. Regarding `OC[C@H]1O[C@H](OC[C@H]2O[C@H](O[C@]3(CO)O[C@H](CO)[C@@H](O)[C@@H]3O)[C@H](O)[C@@H](O)[C@@H]2O)[C@H](O)[C@@H](O)[C@H]1O` [D-Raffinose], the “Lipase (RFU)” value is recorded as 981.0683 RFU. As for `CC(=O)Oc1c(C)c(C)c2c(c1C)CCC(C)(CCCC(C)CCCC(C)CCCC(C)C)O2` (racemic) [DL-α-Tocopherol acetate], the “Lipase (RFU)” value was found to be 697.673 RFU. Turning to `CC(=O)O[C@H](CC(=O)O)C[N+](C)(C)C.[Cl-]` [Acetyl-L-carnitine (hydrochloride)], the “Lipase (RFU)” value was found to be 1004.353 RFU. Regarding O-Nornuciferine, the “Lipase (RFU)” value is reported as 773.2053 RFU. Take `O=C(CCc1ccc(O)cc1)c1c(O)cc(O[C@@H]2O[C@H](CO)[C@@H](O)[C@H](O)[C@H]2O)cc1O` [Trilobatin]: the “Lipase (RFU)” value is 813.3377 RFU and 1211.862 RFU. On the same count and under the same terms, the value for `C[C@@H]1O[C@@H](O[C@@H]2[C@@H](O)[C@H](O)[C@@H](CO)O[C@H]2c2c(O)cc(O)c3c(=O)cc(-c4ccc(O)cc4)oc23)[C@H](O)[C@H](O)[C@H]1O` [Vitexin-2″-O-rhamnoside] was 747.1181 RFU; that for `COc1cc(-c2cc(=O)c3c(O)cc(O)cc3o2)cc(OC)c1O` [Tricin] was 691.2218 RFU; that for `C[C@@H]1O[C@@H](O[C@H]2[C@H](Oc3c(-c4ccc(O)cc4)oc4cc(O)cc(O)c4c3=O)O[C@H](CO)[C@@H](O)[C@@H]2O)[C@H](O)[C@H](O)[C@H]1O` [Kaempferol 3-neohesperidoside] was 1019.446 RFU.

`C[C@@]12C=Cc3occc3[C@H]1CC[C@@]13C[C@@H](CC[C@H]12)[C@@](O)(CO)C3` [Kahweol]: the “Lipase (RFU)” value was determined as 608.7131 RFU. As for `O=C(O)[C@@H]1C[C@H](O)CN1` [cis-4-Hydroxy-L-proline], the “Lipase (RFU)” value came to 944.0714 RFU.

`CC1(C)CC[C@]2(C(=O)O)CC[C@]3(C)C(=CC[C@@H]4[C@@]5(C)CC[C@H](O[C@@H]6O[C@H](C(=O)O)[C@@H](O)[C@H](O)[C@H]6O)C(C)(C)[C@@H]5CC[C@]43C)[C@@H]2C1` [Calenduloside E]: the “Lipase (RFU)” value is reported as 1034.138 RFU. Turning to `CN(C)CCc1ccc(O)cc1` [Hordenine], the “Lipase (RFU)” value was found to be 1057.467 RFU. Turning to Chondroitin Sulfate, the “Lipase (RFU)” value is listed as 348.836 RFU. Take `N#CCCN` [β-Aminopropionitrile]: the “Lipase (RFU)” value came out at 985.2024 RFU.

For the compound `NC(=O)Cc1ccccc1` [Compound 2-Phenylacetamide, 2-Phenylacetamide], the “Lipase (RFU)” value is reported as 955.8815 RFU. As to `N[C@@H](CCC(=O)N[C@@H](CSN=O)C(=O)NCC(=O)O)C(=O)O` [Nitrosoglutathione], the “Lipase (RFU)” value is recorded as 688.3783 RFU. As to Pyropheophorbide-a, the “Lipase (RFU)” value is recorded as 1205.079 RFU. `OC[C@H]1O[C@@](CO)(O[C@H]2O[C@H](CO[C@@H]3O[C@H](CO)[C@@H](O)[C@H](O)[C@H]3O)[C@@H](O)[C@H](O)[C@H]2O)[C@@H](O)[C@@H]1O` [Gentianose]: the “Lipase (RFU)” value amounted to 1100.387 RFU.

Take `CC1CCC(C(C)C)C(O)C1` (racemic) [DL-Menthol]: the “Lipase (RFU)” value was found to be 1275.242 RFU. In the case of `COC1=C(OC)C(=O)C(C/C=C(\C)CC/C=C(\C)CC/C=C(\C)CC/C=C(\C)CC/C=C(\C)CC/C=C(\C)CC/C=C(\C)CC/C=C(\C)CCC=C(C)C)=C(C)C1=O` [Coenzyme Q9], the “Lipase (RFU)” value turned out to be 1106.833 RFU.

For `Nc1ncnc2c1ncn2[C@H]1C[C@H](O)[C@@H](CO)O1.O` [2′-Deoxyadenosine monohydrate], the “Lipase (RFU)” value stood at 945.7798 RFU. As to `COc1cc(O)c(C(=O)/C=C/c2ccccc2)c(O)c1` [Pinostrobin chalcone], the “Lipase (RFU)” value is reported as 969.4657 RFU. For `COc1ccc(C(=O)O)cc1OC` [Veratric acid], the “Lipase (RFU)” value was 944.3491 RFU.

As to `CC1=C(C=O)C(C)(C)CC=C1` [Safranal], the “Lipase (RFU)” value was 1026.753 RFU and 1118.736 RFU. Regarding `Oc1cc(O)c2c(c1)O[C@H](c1cc(O)c(O)c(O)c1)[C@@H](O)C2` [(+)-Gallocatechin], the “Lipase (RFU)” value is reported as 1096.904 RFU.

As to `OC[C@H]1O[C@@H](Oc2cc(O)cc(/C=C/c3ccc(O)c(O)c3)c2)[C@H](O)[C@@H](O)[C@@H]1O` [Astringin], the “Lipase (RFU)” value is 1052.825 RFU. With `CCCCCCCCCC(=O)OCC(COC(=O)CCCCCCCCC)OC(=O)CCCCCCCCC` [Trisdecanoin], the “Lipase (RFU)” value stood at 969.1379 RFU. Turning to Riboflavin (phosphate sodium), the “Lipase (RFU)” value was 760.1592 RFU. For the compound `O=C(/C=C/c1ccc(O)cc1)c1ccc(O[C@@H]2O[C@H](CO)[C@@H](O)[C@H](O)[C@H]2O)cc1O` [Neoisoliquiritin], the “Lipase (RFU)” value is reported as 789.3461 RFU.

As to `O=C(O)/C=C/c1c[nH]cn1` [Urocanic acid], the “Lipase (RFU)” value turned out to be 1101.226 RFU.

The same experiment, now with this note: (hydrochloride).
Consider `Cl.NCCCC[C@H](N)C(=O)O` [L-Lysine hydrochloride], for which the “Lipase (RFU)” value is 1184.747 RFU and 890.5892 RFU.
